Laboratory results reported in PMC8343220, “The selectivity of α‐adrenoceptor agonists for the human α1A, α1B, and α1D‐adrenoceptors” (Pharmacology Research & Perspectives, 2021).
Where two headings read alike, the source gives them in different places. One block for each compound: values may come before it.

What was measured:
human α1B‐adrenoceptor [1] = target: T1, human α1B‐adrenoceptor (Homo sapiens, UniProt P35368); assay: Intracellular free calcium mobilization, CHO‐α1B cells; format: cell-based; settings: for Intracellular calcium release % ionomycin: maximal response as % of 10 µM ionomycin response
T1 construct: expressed in transfected cells; host or cells: CHO-K1
T1 sequence (P35368 1-520): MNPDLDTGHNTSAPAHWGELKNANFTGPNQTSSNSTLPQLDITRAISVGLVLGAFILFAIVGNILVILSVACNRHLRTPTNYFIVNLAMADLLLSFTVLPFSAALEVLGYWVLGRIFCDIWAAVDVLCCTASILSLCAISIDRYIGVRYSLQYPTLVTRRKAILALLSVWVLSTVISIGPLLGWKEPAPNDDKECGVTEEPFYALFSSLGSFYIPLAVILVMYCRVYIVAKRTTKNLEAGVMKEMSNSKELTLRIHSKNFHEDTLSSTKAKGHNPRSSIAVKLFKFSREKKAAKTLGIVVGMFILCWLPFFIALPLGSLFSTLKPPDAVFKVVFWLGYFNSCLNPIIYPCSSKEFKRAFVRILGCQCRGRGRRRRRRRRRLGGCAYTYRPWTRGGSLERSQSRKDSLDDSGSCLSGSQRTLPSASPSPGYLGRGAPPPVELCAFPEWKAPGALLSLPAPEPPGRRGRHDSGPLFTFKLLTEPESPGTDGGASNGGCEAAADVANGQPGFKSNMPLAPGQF

[2] = system: parental CHO cell line without any transfected receptors; assay: ERK1/2‐phosphorylation, parent CHO cells without transfected receptors; format: cell-based, Chinese hamster; settings: for Emax at 100 µM: Cricetulus griseus, CHO, read-out: ERK1/2-phosphorylation % PDBu at 100μM; for ERK1/2-phosphorylation % PDBu: maximal response as % of PDBu (10μM) response
[3] = target: T2, human α1D‐adrenoceptor (full length) (Homo sapiens, UniProt P25100); assay: ERK1/2‐phosphorylation (Surefire Alphascreen), CHO‐α1D cells; format: cell-based; settings: CHO‐α1D cells; for ERK1/2‐phosphorylation % PDBu: maximal response as % of PDBu
T2 construct: human α1D‐adrenoceptor (full length) were used; expressed in transfected cells; host or cells: CHO-K1
T2 sequence (P25100 1-572): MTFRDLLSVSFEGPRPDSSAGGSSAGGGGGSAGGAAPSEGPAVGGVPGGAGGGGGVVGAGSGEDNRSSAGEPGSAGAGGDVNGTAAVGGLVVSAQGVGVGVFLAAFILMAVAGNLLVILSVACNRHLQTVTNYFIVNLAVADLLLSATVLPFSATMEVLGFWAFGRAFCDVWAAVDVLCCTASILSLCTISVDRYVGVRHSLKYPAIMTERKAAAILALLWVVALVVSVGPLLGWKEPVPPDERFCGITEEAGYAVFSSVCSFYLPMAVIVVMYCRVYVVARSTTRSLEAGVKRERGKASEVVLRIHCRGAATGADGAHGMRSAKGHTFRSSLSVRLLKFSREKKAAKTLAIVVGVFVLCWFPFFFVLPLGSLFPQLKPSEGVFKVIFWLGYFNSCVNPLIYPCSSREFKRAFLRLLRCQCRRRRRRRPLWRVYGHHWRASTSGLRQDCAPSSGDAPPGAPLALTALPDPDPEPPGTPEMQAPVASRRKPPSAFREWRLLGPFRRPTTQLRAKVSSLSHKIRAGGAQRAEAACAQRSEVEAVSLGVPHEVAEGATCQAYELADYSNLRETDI

human α1A‐adrenoceptor [4] = target: T3, human α1A‐adrenoceptor (Homo sapiens, UniProt P35348); assay: ^3H‐cAMP accumulation, CHO‐α1A cells; format: cell-based; settings: CHO‐α1A cells; % of 10 µM forskolin response
T3 construct: expressed in transfected cells; host or cells: CHO-K1
T3 sequence (P35348 1-466): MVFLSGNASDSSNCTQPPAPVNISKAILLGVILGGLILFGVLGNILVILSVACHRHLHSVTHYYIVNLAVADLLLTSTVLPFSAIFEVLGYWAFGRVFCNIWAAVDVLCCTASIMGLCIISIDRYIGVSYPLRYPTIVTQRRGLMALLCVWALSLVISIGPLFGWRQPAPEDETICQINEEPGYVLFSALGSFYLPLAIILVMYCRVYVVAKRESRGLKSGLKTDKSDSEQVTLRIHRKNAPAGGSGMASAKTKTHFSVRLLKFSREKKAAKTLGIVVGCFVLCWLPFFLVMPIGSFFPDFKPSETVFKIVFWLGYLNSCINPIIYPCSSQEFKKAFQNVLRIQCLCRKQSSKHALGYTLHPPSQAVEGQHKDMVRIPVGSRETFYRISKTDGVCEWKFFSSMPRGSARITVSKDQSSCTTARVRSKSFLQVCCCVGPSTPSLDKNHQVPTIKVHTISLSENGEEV

human α1B‐adrenoceptor [5] = target: T1, human α1B‐adrenoceptor; assay: ERK1/2‐phosphorylation (Surefire Alphascreen), CHO‐α1B cells; format: cell-based; settings: for ERK1/2‐phosphorylation % PDBu at 100 µM: response at 100 µM ligand (no EC50 given)
[6] = target: T2, human α1D‐adrenoceptor (full length); assay: Intracellular free calcium mobilization, CHO‐α1D cells; format: cell-based; settings: CHO‐α1D cells; for Intracellular calcium release Log EC50: log values given negative; for Intracellular calcium release % ionomycin: maximal response as % of 10 µM ionomycin
[7] = system: parental CHO cell line without any transfected receptors; assay: Forskolin‐stimulated cAMP accumulation, parent CHO cells without transfected receptors; format: cell-based, Chinese hamster; settings: CHO cells without transfected receptors; in presence of forskolin
human α1B‐adrenoceptor [8] = target: T1, human α1B‐adrenoceptor; assay: ^3H‐prazosin whole‐cell radioligand binding, CHO‐α1B cells
human α1A‐adrenoceptor [9] = target: T3, human α1A‐adrenoceptor; assay: ERK1/2‐phosphorylation (Surefire Alphascreen), CHO‐α1A cells; format: cell-based; settings: CHO‐α1A cells; response at 100 μM ligand, no EC50 obtained
[10] = target: T2, human α1D‐adrenoceptor (full length); assay: ^3H‐prazosin whole‐cell radioligand binding, CHO‐α1D cells; settings: CHO‐α1D cells
[11] = response at 100 µM ligand (no EC50 given)
[12] = CHO cells without transfected receptors, mean ± s.e.m.

- Intracellular calcium release % ionomycin (human α1B‐adrenoceptor [1]; CHO‐α1B cells): 53.9 ± 3.3%
- ERK1/2‐phosphorylation % PDBu [3]: 8.5 ± 1.7%
- cAMP accumulation % forskolin (human α1A‐adrenoceptor [4]): 16.2 ± 3.0%
- ERK1/2‐phosphorylation % PDBu (human α1B‐adrenoceptor [5]; CHO‐α1B cells, maximal response as % PDBu response, for bi‐phasic responses the initial stimulatory part): 77.8 ± 8.5%
- Intracellular calcium release % Ionomycin at 100 µM [6, 11]: 3.6 ± 1.2%
Compound: CC(C)NCC(O)c1ccc(O)c(O)c1 (stereo not shown) [Isoprenaline]
- Emax at 100 µM [2]: 5.1 ± 4.6%
- cAMP accumulation (in presence of forskolin) Log EC50 [7]: No response

Compound: Nc1cc(Cl)c(N=C2NCCN2)c(Cl)c1 [Para-amino-clonidine]
- ERK1/2-phosphorylation % PDBu [2, 12]: No response
- cAMP accumulation (in presence of forskolin) Log EC50 [7]: No response

- Intracellular calcium release % Ionomycin at 100 µM (human α1B‐adrenoceptor [1]; CHO‐α1B cells, response at 100 µM ligand (no EC50 given), % of ionomycin response): 16.9 ± 2.0%
- ERK1/2‐phosphorylation Log EC50 ([3]; log values given negative): No response
- ERK1/2‐phosphorylation % PDBu [3]: No response
- Log KD, ^3H‐prazosin binding (human α1B‐adrenoceptor [8]; CHO‐α1B cells, whole‐cell binding (from Table 1), given as log KD (negative numbers)): No binding
- Log KD α1B, ^3H‐prazosin whole cell binding (human α1B‐adrenoceptor [8]; CHO‐α1B cells, given as log KD (negative), mean ± SEM): No binding
- ERK1/2‐phosphorylation % PDBu at 100 µM (human α1A‐adrenoceptor [9]): 87.7 ± 11.0%
- ERK1/2‐phosphorylation % PDBu at 100 µM (human α1B‐adrenoceptor [5]; CHO‐α1B cells): 20.4 ± 8.0%
- Intracellular calcium release Log EC50 [6]: No response
- Intracellular calcium release % ionomycin [6]: No response
- 3H‐prazosin binding log IC50 (bound, printed in Log KD column) ([10]; whole‐cell binding, given as IC50 > log value): IC50 > −3
- IC50 ([10]; printed as IC50> log value): > 1 mM
Compound: COc1ccc(OC)c(C(O)CNC(=O)CN)c1 (stereo not shown) [Midodrine]
- ERK1/2-phosphorylation % PDBu [2, 12]: No response
- ERK1/2-phosphorylation Log EC50 [2, 12]: No response

- EC50 (human α1B‐adrenoceptor [1]; CHO‐α1B cells, given as log EC50 (negative numbers), read-out: Intracellular calcium release Log EC50 (converted)): 7.24 µM
- Intracellular calcium release % ionomycin (human α1B‐adrenoceptor [1]; CHO‐α1B cells): 58.4 ± 3.0%
- ERK1/2‐phosphorylation % PDBu at 100 µM [3, 11]: 4.0 ± 2.5%
- IC50 (human α1B‐adrenoceptor [8]; CHO‐α1B cells, printed as IC50> log value): > 1 mM
- ERK1/2‐phosphorylation % PDBu at 100 µM (human α1A‐adrenoceptor [9]): 4.3 ± 1.9%
- ERK1/2‐phosphorylation % PDBu at 100 µM (human α1B‐adrenoceptor [5]; CHO‐α1B cells): 7.1 ± 3.5%
- Intracellular calcium release Log EC50 [6]: No response
- Intracellular calcium release % ionomycin [6]: No response
- Kd ([10]; 3H‐prazosin binding Log KD, whole‐cell binding (from Table 1), log values given negative): 135 µM
- Kd ([10]; given as log KD (negative), mean ± SEM, 'early plateau' = specific binding not fully inhibited): 135 µM
Compound: CC(C)(C)NCC(O)c1ccc(O)c(CO)c1 (stereo not shown) [Salbutamol]
- Emax at 100 µM [2]: 3.5 ± 2%

Compound: c1ccc2c(c1)CCCC2C1=NCCN1 (stereo not shown) [Tetrohydrozoline]
- Intracellular calcium release % Ionomycin at 100 µM (human α1B‐adrenoceptor [1]): 2.9 ± 1.4%
- Log KD, ^3H‐prazosin binding (human α1B‐adrenoceptor [8]): −5.22
- ERK1/2‐phosphorylation % PDBu (human α1B‐adrenoceptor [5]): No response
- ERK1/2‐phosphorylation Log EC50 (human α1B‐adrenoceptor [5]): No response
